Values joined by “and” are separate entries in the source; they are usually repeats but may differ in a detail not shown here. Equal values may be shown once. Read-outs that look alike come from different tables or passages of the source.
Biological target: T1, PfCRT^Dd2 (Plasmodium falciparum, UniProt Q8IBZ9, A220S/I356T/K76T/M74I/N326S/N75E/Q271E/R371I)
T1 sequence (Q8IBZ9 1-424 M74I/N75E/K76T/A220S/Q271E/N326S/I356T/R371I): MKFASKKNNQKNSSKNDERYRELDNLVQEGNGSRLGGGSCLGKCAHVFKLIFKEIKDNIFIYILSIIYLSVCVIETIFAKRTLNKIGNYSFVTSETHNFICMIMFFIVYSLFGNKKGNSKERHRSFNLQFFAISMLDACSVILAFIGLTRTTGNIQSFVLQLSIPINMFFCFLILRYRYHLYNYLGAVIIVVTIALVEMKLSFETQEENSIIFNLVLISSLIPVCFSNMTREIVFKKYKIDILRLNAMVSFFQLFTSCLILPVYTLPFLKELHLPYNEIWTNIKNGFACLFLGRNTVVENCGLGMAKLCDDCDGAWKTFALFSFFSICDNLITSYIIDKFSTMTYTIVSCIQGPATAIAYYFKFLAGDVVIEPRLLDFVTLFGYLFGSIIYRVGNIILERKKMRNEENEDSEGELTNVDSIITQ
Assay: Competition kinetics of drug transport (radiolabeled substrate plus cold inhibitor), PfCRT^Dd2-expressing oocytes
Assay type: cell-based
Parameters: expressed in transfected cells; host or cells: Xenopus laevis oocytes injected with in vitro transcribed RNA (pSP64T)
Conditions: for PfCRTDd2-mediated CQ transport 500 µM CQ: single replicates; for Vmax, maximal velocity of drug transport: global fit; for β, partiality factor: factor on transport of the labeled drug by the other drug
Procedure: The experimental procedure and the data analysis were as described above.
The difference between the two models lies in the value of α, a parameter describing how much the affinity for the substrate changes when the inhibitor is already bound, and vice versa. […] The resulting Vmax,app values and the Vmax,app/KM,app ratios were plotted as a function of the inhibitor concentration (Fig 5A).
Drug transport assays were performed as previously described. Briefly, measurements of radiolabeled drug uptake were made over 1 h, unless otherwise specified. […] Where specified, one or more unlabeled drugs were also present at the indicated concentrations. […] The uptake assays were terminated by removing the oocytes from the reaction medium and washing them three times with 2 mL of ice-cold ND96 buffer. Each oocyte was transferred to a separate scintillation vial and lysed by the addition of 200 μL of a 5% SDS solution. The radioactivity in the sample was measured using a liquid scintillation analyser Tri-Carb 4910 TR (PerkinElmer). Water-injected oocytes were analyzed in parallel as a negative control. The buffer from each condition was measured in duplicate in parallel to each experiment to transform counts per minute into pmol of drug. Drug uptake attributable to PfCRT was determined by subtracting the background uptake from water-injected oocytes from that of PfCRT-expressing oocytes. In all cases, at least three independent experiments were performed on oocytes from different frogs, and for each condition in an experiment, measurements were made from 10 oocytes per treatment.
The following equations were adopted from Segel (1993), and the reader is referred to that text for the assumptions made in the author’s approach in the derivation of each equation [31]. The concentration of substrate is denoted as [S1] and the concentration of the inhibiting substrate is denoted as [S2]. KS1 and KS2 are the dissociation constants for the respective substrate-protein complexes.
Analyses of the kinetic data were performed using SigmaPlot version 13.0 and Python. The drug competition models were globally fit to the kinetic data using the least-squares method and ranked according to their corrected Akaike information criterion difference (ΔAICC) and their Akaike weight, using Python. The two top-ranked models were compared using an F-test.
This factor reflects how much the affinity of the transporter for one drug changes when the other drug is already bound in the protein cavity. In the former model, α > 0 and α ≠ 1. In the latter model, it could be thought of as if α = 1. Because of this, discriminating between the two models also means determining the value of α. In Mixed-type (Partial) inhibition, the apparent maximal velocity (Vmax,app) is given by Eq 22, Vmax,app=Vmax(1+β[S2]/αKS2)/(1+[S2]/αKS2) (Eq 22)
Vmax,app is the maximal rate of substrate transport at a certain inhibitor concentration. The half-maximal inhibitory concentration is given by the term in the denominator different from [S2], which in this case is αKS2. This means that by plotting Vmax,app as a function of [S2], the value of αKS2 can be derived after fitting the curve to Eq 23.
The half-maximal inhibitory concentration derived from this hyperbolic equation is equal to KS2. By plotting Vmax,app/KM,app as a function of [S2], one can derive KS2 after fitting the curve to Eq 25. The value of α can then be calculated dividing αKS2 by KS2.

How did the “PfCRTDd2-mediated CQ transport 500 µM CQ” value (0 µM PPQ) turn out when CCN(CC)CCCC(C)Nc1ccnc2cc(Cl)ccc12 (stereo not shown) [CQ, chloroquine] was run?
The value was 25.01 pmol oocyte-1 h-1 and 21.69 pmol oocyte-1 h-1 and 19.19 pmol oocyte-1 h-1 and 20.87 pmol oocyte-1 h-1.

What about the “PfCRTDd2-mediated CQ transport 500 µM CQ” value (50 µM PPQ) of the same compound?
Its value is 19.01 pmol oocyte-1 h-1 and 16.61 pmol oocyte-1 h-1 and 18.59 pmol oocyte-1 h-1.

And the “PfCRTDd2-mediated CQ transport 500 µM CQ” value (125 µM PPQ)?
Its value is 18.10 pmol oocyte-1 h-1 and 16.11 pmol oocyte-1 h-1 and 15.06 pmol oocyte-1 h-1.

And the “PfCRTDd2-mediated CQ transport 500 µM CQ” value (200 µM PPQ)?
Its value is 12.71 pmol oocyte-1 h-1 and 15.12 pmol oocyte-1 h-1 and 13.60 pmol oocyte-1 h-1.

And the “PfCRTDd2-mediated CQ transport 500 µM CQ” value (350 µM PPQ)?
Its value is 12.41 pmol oocyte-1 h-1 and 14.97 pmol oocyte-1 h-1 and 10.99 pmol oocyte-1 h-1.

And the “PfCRTDd2-mediated CQ transport 500 µM CQ” value (500 µM PPQ)?
The value was 15.66 pmol oocyte-1 h-1 and 9.12 pmol oocyte-1 h-1 and 11.85 pmol oocyte-1 h-1.

And the “most plausible inhibition model” value (16 models, ΔAICC, Akaike weight, F-test, label = cold inhibitor of the other drug's transport)?
The value was “partial noncompetitive inhibition”.

What about the “Vmax, maximal velocity of drug transport” value (Mixed (Partial) model, drug as radiolabeled substrate) of the same compound?
Its value is 33 ± 1 pmol oocyte^-1 h^-1.

What about the Kd (Mixed (Partial) model, drug as cold inhibitor, read-out: KS, dissociation constant for the PfCRT-substrate complex) of the same compound?
Its Kd is 210 ± 80 µM.

What about the Kd (Mixed (Partial) model, drug as radiolabeled substrate, read-out: KS, dissociation constant for the PfCRT-substrate complex) of the same compound?
The Kd was 260 ± 25 µM.

What about the “β, partiality factor” value (Mixed (Partial) model) of the same compound?
The value was 0.38 ± 0.06.

And the “α, KS interaction factor” value (Mixed (Partial) model, label = radiolabeled substrate, other drug cold inhibitor)?
Its value is 1.0 ± 0.2.

What about the “Vmax, maximal velocity of drug transport” value (Noncompetitive (Partial) model, drug as radiolabeled substrate, other drug as cold inhibitor) of the same compound?
The value was 32 pmol oocyte^-1 h^-1 and 32 ± 1 pmol oocyte^-1 h^-1.

And the Kd (Noncompetitive (Partial) model, drug as cold inhibitor, read-out: KS, dissociation constant for the PfCRT-substrate complex)?
Its Kd is 238 µM and 240 µM.

What about the Kd (Noncompetitive (Partial) model, drug as radiolabeled substrate, read-out: KS, dissociation constant for the PfCRT-substrate complex) of the same compound?
The Kd was 254 µM and 250 µM.

What about the “β, partiality factor” value (Noncompetitive (Partial) model) of the same compound?
The value was 0.38 and 0.38 ± 0.04.

What about the “KMapp ([3H]CQ + PPQ)” value ([PPQ] 0 µM) of the same compound?
The value was 257.93 µM.

What about the “Vmaxapp ([3H]CQ + PPQ)” value ([PPQ] 0 µM) of the same compound?
Its value is 32.70 pmol oocyte-1 h-1.

What about the “Vmaxapp/KMapp ([3H]CQ + PPQ)” value ([PPQ] 0 µM) of the same compound?
The value was 0.1268 h⁻¹.

And the “KMapp ([3H]CQ + PPQ)” value ([PPQ] 50 µM)?
The value was 250.37 µM.

What about the “Vmaxapp ([3H]CQ + PPQ)” value ([PPQ] 50 µM) of the same compound?
Its value is 27.98 pmol oocyte-1 h-1.

What about the “Vmaxapp/KMapp ([3H]CQ + PPQ)” value ([PPQ] 50 µM) of the same compound?
Its value is 0.1117 h⁻¹.

What about the “KMapp ([3H]CQ + PPQ)” value ([PPQ] 125 µM) of the same compound?
Its value is 258.31 µM.

And the “Vmaxapp ([3H]CQ + PPQ)” value ([PPQ] 125 µM)?
The value was 25.60 pmol oocyte-1 h-1.

What about the “Vmaxapp/KMapp ([3H]CQ + PPQ)” value ([PPQ] 125 µM) of the same compound?
Its value is 0.0991 h⁻¹.

What about the “KMapp ([3H]CQ + PPQ)” value ([PPQ] 200 µM) of the same compound?
The value was 254.40 µM.

And the “Vmaxapp ([3H]CQ + PPQ)” value ([PPQ] 200 µM)?
The value was 21.83 pmol oocyte-1 h-1.

What about the “Vmaxapp/KMapp ([3H]CQ + PPQ)” value ([PPQ] 200 µM) of the same compound?
Its value is 0.0858 h⁻¹.

And the “KMapp ([3H]CQ + PPQ)” value ([PPQ] 350 µM)?
The value was 250.34 µM.

What about the “Vmaxapp ([3H]CQ + PPQ)” value ([PPQ] 350 µM) of the same compound?
Its value is 19.75 pmol oocyte-1 h-1.

What about the “Vmaxapp/KMapp ([3H]CQ + PPQ)” value ([PPQ] 350 µM) of the same compound?
Its value is 0.0789 h⁻¹.

And the “KMapp ([3H]CQ + PPQ)” value ([PPQ] 500 µM)?
Its value is 247.83 µM.

And the “Vmaxapp ([3H]CQ + PPQ)” value ([PPQ] 500 µM)?
Its value is 17.90 pmol oocyte-1 h-1.

What about the “Vmaxapp/KMapp ([3H]CQ + PPQ)” value ([PPQ] 500 µM) of the same compound?
The value was 0.0722 h⁻¹.

What about the “β^CQ, partiality factor” value (fractional velocity plot, factor by which PPQ slows down CQ transport) of the same compound?
Its value is 0.35 ± 0.06.

And the Kd (secondary plot, half-maximum inhibitory concentration of Vmax,app versus inhibitor concentration, read-out: αKS, dissociation constant between the drug and the PfCRT complex with the other drug)?
Its Kd is 220 ± 85 µM.

And the “α (αKS divided by KS)” value (secondary plots, label = prebound drug)?
The value was 1.0 ± 0.3.

From paper PMC10281575, “PfCRT mutations conferring piperaquine resistance in falciparum malaria shape the kinetics of quinoline drug binding and transport” (PLOS Pathogens, 2023)
